Laboratory results published in patent US20140371254A1, “NOVEL TREATMENT OF GEFITINIB-RESISTANT NON-SMALL-CELL LUNG CANCER” (Macau University of Science and Technology, priority 2013, published 2014).

How the values were obtained:
[1] = system: H2228 (EML4-ALK fusion gene); settings: method not stated; cited from earlier work
[2] = system: H1975 (EGFR^L858R+T790M) cells; experiment: Apoptosis by Annexin V/PI staining with flow cytometry; format: cell-based, human
Protocol: Annexin V/PI staining is used to detect early and late stages of apoptosis. According to the manufacturer's protocol (BD Pharmingen), 5×10^5 cells of the treated and control groups were harvested, washed, and double-stained with Annexin V/PI for 15 min at room temperature in dark. Then apoptotic cells were quantitatively counted by a flow cytometer (BD FACSAria III). Early stage of apoptotic cells were stained with Annexin V-positive and PI-negative, while the late stage of apoptotic cells were stained with Annexin V-positive and PI-positive.
Example 6 further studies if the sanguinarine-induced apoptosis in H1975 (EGFR^L858R+T790M) is in caspases-dependent manner H1975 cells were treated with 1.25 μM sanguinarine and 1.25 μM sanguinarine together with 50 μM pan-caspase inhibitor for 24 hrs.

[3] = system: EGFR; experiment: Western blot analysis of the protein level of EGFR; format: cell-based, human; settings: 5 μM NAC and 1.25 μM sanguinarine
Protocol: (§1) Cells were lysed in RIPA lysis buffer with protease and phosphatase inhibitors added for total whole cell protein extraction. The concentration of the total protein extract was determined by Bio-Rad DCTM protein assay kit (Bio-Rad). Then samples were loaded and separated onto a 10% SDS-PAGE gel and then the separated proteins were transferred to a Nitrocellulose (NC) membrane. Membranes were blocked with 5% milk without fat in TBST for 1 hour at room temperature. Primary antibodies (1:1000 dilutions for Cell Signaling antibodies; 1:500 dilutions for Santa Cruz antibodies) were added and incubated overnight at 4° C. On the other day, membrane was washed by TBST for three times (5 mins/wash), while secondary fluorescent antibody (1:10000 dilutions) was added to membrane and incubated at room temperature for 1 hr. Actin was used as loading control and for normalization. The signal intensity of the membranes was detected by Odessy (LI-COR).
In Example 3, the protein level of EGFR after sanguinarine treatment with difference dosage and duration was analyzed.

[4] = system: JNK, p38; experiment: Western blot of phosphorylation of JNK and p38; format: cell-based, human; settings: 5 μM NAC and 1.25 μM sanguinarine
Protocol: as §1
ROS intensity was increased with the increase of sanguinarine treatment time. Sanguinarine-induced apoptosis in H1975 cells, in which the cells were pre-treated with 5 μM NAC and a ROS generation inhibitor, was also studied. […] Also, P-EGFR 1045 as shown in FIG. 6 is a tyrosine(Y) phosphorylation site of EGFR at amino acid position 1045 (Y1045) and phosphorylation of this site will lead to activation of EGFR degradation after cbl docking to this site

SMILES: COc1cc2ncnc(Nc3ccc(F)c(Cl)c3)c2cc1OCCCN1CCOCC1 [Gefitinib]
- Gefitinib Sensitivity [1]: Resistant

SMILES: CC(=O)N[C@@H](CS)C(=O)O [NAC]
- apoptosis induced by sanguinarine after NAC pre-treatment ([2]; H1975, pre-treated with 5 μM NAC, sanguinarine): completely blocked
- EGFR degradation induced by sanguinarine [3]: block
- phosphorylation of JNK, p38 induced by sanguinarine [4]: block

SMILES: C[n+]1cc2c3c(ccc2c2ccc4cc5c(cc4c21)OCO5)OCO3 [sanguinarine]
- more cell debris than control ([2]; H1975, 1.25 μM, 24 hrs): 20%
- increase in early stage of apoptosis compared with the control group ([2]; H1975, 1.25 μM, 24 hrs, early stage (Q3)): 7.2 fold
